Test results from patent publication US20240246934A1, “QUINAZOLINE-BASED COMPOUND, COMPOSITION, AND APPLICATION OF QUINAZOLINE-BASED COMPOUND” (BEIJING SCITECH-MQ PHARMACEUTICALS LIMITED, priority 2021, published 2024).

Assays:
HER2 kinase = target: T1, HER2 kinase (Homo sapiens, UniProt P04626); assay: HER2 kinase assay (ULight/PT66 TR-FRET); format: biochemical
T1 construct: purchased Carna Biosciences 08-016
Description: (§1) Preparation of compound solution: The assay compound was dissolved in DMSO to form a 10 mM stock solution. Prior to use, the compound was diluted to 0.25 mM in DMSO (100 times the final concentration of the diluent) and then subjected to a 3-fold concentration gradient dilution to obtain a total of 11 concentrations. The solution was diluted with buffer to a diluent with 4× the final concentration when the compound was added.
(§2) HER2 kinase assay: buffer was prepared, and 40 nM 4×Her2 kinase solution, 40 μM 4×ATP solution, and 400 nM 4×ULight™-labeled Ploy GT Peptide substrate solution were prepared using the buffer. After the preparation was completed, the enzyme was mixed with different concentrations of compounds pre-prepared by dilution, and the mixture was left to stand at room temperature for 5 min. Each concentration was performed in duplicate. The corresponding substrate and ATP were added and the mixture was reacted at room temperature for 120 minutes (with negative and positive controls). After completion of the reaction, PT66 detection antibody was added. The mixture was incubated at room temperature for 60 minutes, and then detected by Envision.
(§3) Compound concentrations and corresponding inhibition rates were input into GraphPad Prism for processing to calculate IC50 values.

[1] = target: Ba/F3 HER2 A775_G776insYVMA cells (Homo sapiens, UniProt P04626, DUP772-775, cells depend on it); assay: Inhibition of cell proliferation, CTG method, Ba/F3 HER2 A775_G776insYVMA; format: cell-based; settings: 72 hours, read-out: Ba/F3 HER2 A775-G776insYVMA IC50
Excerpt: The present application examined the in vitro anti-proliferative activity of the compounds of the present disclosure against in vitro cultured BT474, NCI-N87, Ba/F3-EGFR-VIII and Ba/F3 HER2 A775_G776insYVMA and Ba/F3 EGFR D770_N771insSVD cell lines by CTG method.
Cell lines: BT474 (from the cell bank of Chinese Academy of Sciences), NCI-N87 (from ATCC), Ba/F3-EGFR-VIII, Ba/F3 HER2 A775_G776insYVMA and Ba/F3 EGFR D770_N771insSVD (all from KYinno Biotechnology (Beijing) Co., Ltd.); all of the above cells were cultured with RPMI1640 medium containing 10% fetal bovine serum, 100 U/mL penicillin, and 100 μg/mL streptomycin in the culture process.
1. The assay compound was dissolved with DMSO to form a stock solution and a gradient dilution was performed, followed by dilution with the corresponding medium to obtain a solution with 5-fold working concentration.
2. Cells in logarithmic growth phase were adjusted to specific cell densities by dilution with culture medium, and 80 μL of cell suspension was added to a 96-well plate, such that plating densities of cells of BT474, NCI-N87, Ba/F3-EGFR-VIII, Ba/F3 HER2 A775_G776insYVMA and Ba/F3 EGFR D770_N771insSVD were all 3000 cells/well. The cells of Ba/F3-EGFR-VIII, Ba/F3 HER2 A775_G776insYVMA and Ba/F3 EGFR D770_N771insSVD were used directly in the next step (treatment with compound), whereas the BT474 and NCI-N87 needed to be cultured overnight in a 37° C., 5% carbon dioxide gas incubator to adhere to the wall, and then treated with compounds.
3. […] The highest concentration of the assayed compound was 10 μM, 4-fold serial dilution, a total of 9 concentrations, and duplicate wells. A control group without compound was also set up.
4. The cells were cultured for another 72 hours, and then cell viability was detected by CTG assay kit. Signal values were read with a multifunctional plate reader (Perkin Elmer). GraphPad Prism software was used to create a dose-response curve and IC50 was calculated.

EGFR^WT kinase = EGFR^WT kinase (Homo sapiens, UniProt P00533); assay: EGFR^WT kinase assay (ULight/PT66 TR-FRET); format: biochemical
Description: as §1
as §2, with “EGFR^WT kinase assay:” for “HER2 kinase assay:”, “prepared, and 3.48 nM 4×EGFR” for “prepared, and 40 nM 4×Her2”, “3.48 nM 4×EGFR kinase solution,” for “40 nM 4×Her2 kinase solution,”, “kinase solution, 600 μM 4×ATP” for “kinase solution, 40 μM 4×ATP”, “nM 4×ULight™-labeled JAK-1 (Try1023) Peptide substrate” for “nM 4×ULight™-labeled Ploy GT Peptide substrate”
as §3

Chain of EGFR^WT kinase (P00533 25-1210): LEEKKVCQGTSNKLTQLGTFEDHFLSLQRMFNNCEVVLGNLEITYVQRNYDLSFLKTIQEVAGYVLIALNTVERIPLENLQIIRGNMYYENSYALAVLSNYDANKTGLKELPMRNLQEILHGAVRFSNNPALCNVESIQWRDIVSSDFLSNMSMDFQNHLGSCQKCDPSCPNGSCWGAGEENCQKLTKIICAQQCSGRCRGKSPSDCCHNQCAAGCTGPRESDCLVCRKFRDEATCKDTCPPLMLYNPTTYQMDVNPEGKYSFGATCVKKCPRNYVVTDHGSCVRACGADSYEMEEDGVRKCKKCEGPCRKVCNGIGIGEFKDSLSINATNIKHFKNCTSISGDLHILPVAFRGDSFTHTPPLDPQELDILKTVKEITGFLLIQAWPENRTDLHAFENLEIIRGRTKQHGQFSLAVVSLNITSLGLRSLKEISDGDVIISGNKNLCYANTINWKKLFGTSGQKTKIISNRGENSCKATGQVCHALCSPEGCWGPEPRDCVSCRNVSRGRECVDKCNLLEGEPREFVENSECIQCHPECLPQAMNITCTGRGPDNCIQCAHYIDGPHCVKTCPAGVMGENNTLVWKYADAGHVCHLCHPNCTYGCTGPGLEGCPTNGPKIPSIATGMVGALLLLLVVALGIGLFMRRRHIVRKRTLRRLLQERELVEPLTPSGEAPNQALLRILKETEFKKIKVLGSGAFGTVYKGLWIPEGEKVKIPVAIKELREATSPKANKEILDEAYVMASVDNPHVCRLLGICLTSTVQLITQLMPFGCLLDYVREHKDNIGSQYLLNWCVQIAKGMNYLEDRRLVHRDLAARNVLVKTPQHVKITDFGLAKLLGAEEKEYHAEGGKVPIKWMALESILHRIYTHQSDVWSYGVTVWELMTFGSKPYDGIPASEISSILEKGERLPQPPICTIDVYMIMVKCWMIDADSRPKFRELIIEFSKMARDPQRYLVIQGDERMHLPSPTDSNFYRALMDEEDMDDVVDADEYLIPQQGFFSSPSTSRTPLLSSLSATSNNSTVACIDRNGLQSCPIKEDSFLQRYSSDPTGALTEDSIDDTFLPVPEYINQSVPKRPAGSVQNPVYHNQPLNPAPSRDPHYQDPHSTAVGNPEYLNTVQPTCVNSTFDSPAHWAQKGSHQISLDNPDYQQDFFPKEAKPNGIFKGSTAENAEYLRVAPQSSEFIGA
T1 sequence (P04626 23-1255): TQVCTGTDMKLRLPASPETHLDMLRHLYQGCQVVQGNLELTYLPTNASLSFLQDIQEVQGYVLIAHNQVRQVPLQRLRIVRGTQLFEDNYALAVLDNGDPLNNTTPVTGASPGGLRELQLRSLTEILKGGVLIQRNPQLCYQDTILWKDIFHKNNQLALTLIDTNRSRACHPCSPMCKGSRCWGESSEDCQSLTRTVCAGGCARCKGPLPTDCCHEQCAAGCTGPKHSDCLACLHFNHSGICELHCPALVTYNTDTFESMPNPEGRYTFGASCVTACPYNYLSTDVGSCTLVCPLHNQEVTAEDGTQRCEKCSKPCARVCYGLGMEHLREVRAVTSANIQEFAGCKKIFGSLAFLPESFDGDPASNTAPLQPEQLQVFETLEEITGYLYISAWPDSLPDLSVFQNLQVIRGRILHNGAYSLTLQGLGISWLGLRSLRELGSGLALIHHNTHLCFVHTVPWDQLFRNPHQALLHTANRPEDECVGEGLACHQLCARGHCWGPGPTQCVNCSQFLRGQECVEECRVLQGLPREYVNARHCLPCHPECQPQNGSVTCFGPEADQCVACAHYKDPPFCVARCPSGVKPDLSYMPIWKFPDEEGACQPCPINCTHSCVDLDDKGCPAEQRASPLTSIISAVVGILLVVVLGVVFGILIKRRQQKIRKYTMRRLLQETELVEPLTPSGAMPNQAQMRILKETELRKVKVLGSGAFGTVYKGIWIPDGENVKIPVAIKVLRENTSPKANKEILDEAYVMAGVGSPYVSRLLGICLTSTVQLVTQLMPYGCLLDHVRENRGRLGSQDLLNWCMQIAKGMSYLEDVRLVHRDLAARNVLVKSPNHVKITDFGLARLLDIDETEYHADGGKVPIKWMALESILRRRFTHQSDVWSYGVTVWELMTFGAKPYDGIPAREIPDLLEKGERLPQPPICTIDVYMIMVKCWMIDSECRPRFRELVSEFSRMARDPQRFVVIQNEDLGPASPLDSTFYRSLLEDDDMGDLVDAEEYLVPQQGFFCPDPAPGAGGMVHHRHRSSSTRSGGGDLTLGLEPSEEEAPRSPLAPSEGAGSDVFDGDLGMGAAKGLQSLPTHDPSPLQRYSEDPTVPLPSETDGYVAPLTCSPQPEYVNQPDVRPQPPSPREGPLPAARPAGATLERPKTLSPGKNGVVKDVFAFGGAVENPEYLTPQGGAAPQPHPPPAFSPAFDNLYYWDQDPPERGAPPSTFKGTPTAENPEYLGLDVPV
Chain of Ba/F3 HER2 A775_G776insYVMA cells (P04626 with tags, fused parts or gaps DUP772-775): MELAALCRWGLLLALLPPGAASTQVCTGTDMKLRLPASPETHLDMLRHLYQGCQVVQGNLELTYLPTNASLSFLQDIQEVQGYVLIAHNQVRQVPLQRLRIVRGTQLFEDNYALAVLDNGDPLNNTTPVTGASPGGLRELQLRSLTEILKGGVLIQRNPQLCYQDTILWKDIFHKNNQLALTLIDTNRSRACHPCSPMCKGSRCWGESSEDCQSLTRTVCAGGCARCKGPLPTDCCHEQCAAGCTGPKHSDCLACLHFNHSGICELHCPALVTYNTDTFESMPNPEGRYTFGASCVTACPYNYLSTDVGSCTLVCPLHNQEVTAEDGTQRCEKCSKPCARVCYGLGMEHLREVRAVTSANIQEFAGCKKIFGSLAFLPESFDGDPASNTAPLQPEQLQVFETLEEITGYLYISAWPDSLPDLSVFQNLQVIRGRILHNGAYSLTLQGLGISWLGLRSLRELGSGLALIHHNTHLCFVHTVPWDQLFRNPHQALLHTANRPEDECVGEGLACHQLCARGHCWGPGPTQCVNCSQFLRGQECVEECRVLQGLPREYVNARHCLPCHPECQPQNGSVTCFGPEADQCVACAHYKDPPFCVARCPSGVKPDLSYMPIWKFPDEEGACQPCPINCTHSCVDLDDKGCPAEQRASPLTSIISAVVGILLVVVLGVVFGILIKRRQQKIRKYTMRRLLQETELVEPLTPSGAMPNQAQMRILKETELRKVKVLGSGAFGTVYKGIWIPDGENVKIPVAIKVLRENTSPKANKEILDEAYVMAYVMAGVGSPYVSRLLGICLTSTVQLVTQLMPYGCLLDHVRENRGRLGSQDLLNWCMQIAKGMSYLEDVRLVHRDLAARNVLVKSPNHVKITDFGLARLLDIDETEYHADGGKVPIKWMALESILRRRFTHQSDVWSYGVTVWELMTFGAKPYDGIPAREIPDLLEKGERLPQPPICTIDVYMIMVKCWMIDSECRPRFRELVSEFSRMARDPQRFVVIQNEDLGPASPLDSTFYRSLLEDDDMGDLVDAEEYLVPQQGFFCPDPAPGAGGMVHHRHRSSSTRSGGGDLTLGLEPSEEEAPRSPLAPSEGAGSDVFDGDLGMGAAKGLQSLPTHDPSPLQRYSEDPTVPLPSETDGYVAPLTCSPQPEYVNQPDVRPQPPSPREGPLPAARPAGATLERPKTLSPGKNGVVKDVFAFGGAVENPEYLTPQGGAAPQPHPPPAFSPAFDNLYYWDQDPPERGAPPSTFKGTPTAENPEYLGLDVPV

| SMILES | IC50 (HER2 kinase) | GI50 [1] | IC50 (EGFR^WT kinase) |
| --- | --- | --- | --- |
| COc1c(NC(=O)/C=C/[C@H]2CCCN2C(C)C)ccc2ncnc(Nc3ccc(OCc4cccc(F)c4)c(Cl)c3)c12 [Example 18, (R,E)-N-(4-((3-chloro-4-(3-fluorobenzyloxy)phenyl)amino)-5-methoxyquinazolin-6-yl)-3-(1-isopropylpyrrolidine-2-yl)acrylamide] | < 10 nM | 1 to 5 nM | < 10 nM |
| CCOc1c(NC(=O)/C=C/[C@H]2CCCN2CC)ccc2ncnc(Nc3ccc(OCc4cccc(F)c4)c(Cl)c3)c12 [Example 19, (R,E)-N-(4-((3-chloro-4-(3-fluorobenzyloxy)phenyl)amino)-5-ethoxyquinazolin-6-yl)-3-(1-ethylpyrrolidin-2-yl)acrylamide] | < 10 nM | 1 to 5 nM | < 10 nM |
| CCOc1c(NC(=O)/C=C/[C@H]2CCCN2CC)ccc2ncnc(Nc3ccc(OCc4ccccn4)c(Cl)c3)c12 [Example 20, (R,E)-N-(4-((3-chloro-4-(pyridin-2-ylmethoxy)phenyl)amino)-5-ethoxyquinazolin-6-yl)-3-(1-ethylpyrrolidin-2-yl)acrylamide] | < 10 nM | 1 to 5 nM | < 10 nM |
| CCOc1c(NC(=O)/C=C/[C@H]2CCCN2C)ccc2ncnc(Nc3ccc(OCc4ccccn4)c(F)c3)c12 [Example 21, (R,E)-N-(5-ethoxy-4-((3-fluoro-4-(pyridin-2-ylmethoxy)phenyl)amino)quinazolin-6-yl)-3-(1-methylpyrrolidine-2-yl)acrylamide] | < 10 nM | 1 to 5 nM | < 10 nM |
| CCOc1c(NC(=O)/C=C/[C@H]2CCCN2C)ccc2ncnc(Nc3ccc(OCc4cccc(C)n4)c(Cl)c3)c12 [Example 22, (R,E)-N-(4-((3-chloro-4-((6-methylpyridin-2-yl)methoxy)phenyl)amino)-5-ethoxyquinazolin-6-yl)-3-(1-methylpyrrolidin-2-yl)acrylamide] | < 10 nM | 1 to 5 nM | < 10 nM |
| COCCCCOc1c(NC(=O)/C=C/[C@H]2CCCN2C)ccc2ncnc(Nc3ccc(OCc4ccccn4)c(Cl)c3)c12 [Example 23, (R,E)-N-(4-((3-chloro-4-(pyridin-2-ylmethoxy)phenyl)amino)-5-(4-methoxybutoxy)quinazolin-6-yl)-3-(1-methylpyrrolidin-2-yl)acrylamide] | < 10 nM | 1 to 5 nM | 100 to 1000 nM |
| COCCN1CCC[C@@H]1/C=C/C(=O)Nc1ccc2ncnc(Nc3ccc(OCc4ccccn4)c(Cl)c3)c2c1OC [Example 25, (R,E)-N-(4-((3-chloro-4-(pyridin-2-ylmethoxy)phenyl)amino)-5-methoxyquinazolin-6-yl)-3-(1-(2-methoxyethyl)pyrrolidin-2-yl)acrylamide] | < 10 nM | 1 to 5 nM | 100 to 1000 nM |
| COc1cccc(COc2ccc(Nc3ncnc4ccc(NC(=O)/C=C/[C@H]5CCCN5C)c(OC)c34)cc2Cl)n1 [Example 27, (R,E)-N-(4-((3-chloro-4-((6-methoxypyridin-2-yl)methoxy)phenyl)amino)-5-methoxyquinazolin-6-yl)-3-(1-methylpyrrolidin-2-yl)acrylamide] | < 10 nM | 1 to 5 nM | 10 to 100 nM |
| COc1c(NC(=O)/C=C/[C@H]2CCCN2C)ccc2ncnc(Nc3ccc(OCc4ccccn4)c(F)c3)c12 [Example 30, (R,E)-N-(4-((3-fluoro-4-(pyridin-2-ylmethoxy)phenyl)amino)-5-methoxyquinazolin-6-yl)-3-(1-methylpyrrolidin-2-yl)acrylamide] | < 10 nM | 1 to 5 nM | < 10 nM |
| CN1CCC[C@@H]1/C=C/C(=O)Nc1ccc2ncnc(Nc3ccc(Oc4ccccc4)cc3)c2c1OCCO [Example 31, (R,E)-N-(5-(2-hydroxyethoxy)-4-((4-phenyloxyphenyl)amino)quinazolin-6-yl)-3-(1-methylpyrrolidin-2-yl)acrylamide] | < 10 nM | 1 to 5 nM | < 10 nM |
| COCCCNc1c(NC(=O)/C=C/[C@H]2CCCN2C)ccc2ncnc(Nc3ccc(OCc4ccccn4)c(Cl)c3)c12 [Example 32, (R,E)-N-(4-((3-chloro-4-(pyridin-2-ylmethoxy)phenyl)amino)-5-((3-methoxypropyl)amino)quinazolin-6-yl)-3-(1-methylpyrrolidin-2-yl)acrylamide] | < 10 nM | 1 to 5 nM | 100 to 1000 nM |
| [2H]C([2H])([2H])Oc1c(NC(=O)/C=C/[C@H]2CCCN2CC)ccc2ncnc(Nc3ccc(OCc4ccccn4)c(Cl)c3)c12 [Example 34, (R,E)-N-(4-((3-chloro-4-(pyridin-2-ylmethoxy)phenyl)amino)-5-(methoxy-d3)quinazolin-6-yl)-3-(1-ethylpyrrolidin-2-yl)acrylamide] | < 10 nM | 1 to 5 nM | < 10 nM |
| [2H]C([2H])([2H])Oc1c(NC(=O)/C=C/[C@H]2CCCN2C(C)C)ccc2ncnc(Nc3ccc(OCc4ccccn4)c(Cl)c3)c12 [Example 35, (R,E)-N-(4-((3-chloro-4-(pyridin-2-ylmethoxy)phenyl)amino)-5-(methoxy-d3)quinazolin-6-yl)-3-(1-isopropylpyrrolidin-2-yl)acrylamide] | < 10 nM | 1 to 5 nM | 10 to 100 nM |
| [2H]C([2H])([2H])Oc1c(NC(=O)/C=C/CN(C)C)ccc2ncnc(Nc3ccc(OCc4ccccn4)c(Cl)c3)c12 [Example 36, (E)-N-(4-((3-chloro-4-(pyridin-2-ylmethoxy)phenyl)amino)-5-(methoxy-d3)quinazolin-6-yl)-4-(dimethylamino)but-2-enamide] | < 10 nM | 1 to 5 nM | < 10 nM |
| CN1CCC[C@@H]1/C=C/C(=O)Nc1ccc2ncnc(Nc3ccc(OCc4ccccn4)c(Cl)c3)c2c1OC1CC1 [Example 37, (R,E)-N-(4-((3-chloro-4-(pyridin-2-ylmethoxy)phenyl)amino)-5-cyclopropoxyquinazolin-6-yl)-3-(1-methylpyrrolidin-2-yl)acrylamide] | < 10 nM | 1 to 5 nM | 10 to 100 nM |
| CN1CCC[C@@H]1/C=C/C(=O)Nc1ccc2ncnc(Nc3ccc(OCc4ccccn4)c(Cl)c3)c2c1OCC1CC1 [Example 38, (R,E)-N-(4-((3-chloro-4-(pyridin-2-ylmethoxy)phenyl)amino)-5-(cyclopropylmethoxy)quinazolin-6-yl)-3-(1-methylpyrrolidone-2-yl)acrylamide] | < 10 nM | 1 to 5 nM | < 10 nM |
| CN1CCC[C@@H]1/C=C/C(=O)Nc1ccc2ncnc(Nc3ccc(OCc4ccccn4)c(Cl)c3)c2c1OC1CCC1 [Example 39, (R,E)-N-(4-((3-chloro-4-(pyridin-2-ylmethoxy)phenyl)amino)-5-cyclobutoxyquinazolin-6-yl)-3-(1-methylpyrrolidin-2-yl)acrylamide] | < 10 nM | 1 to 5 nM | < 10 nM |
| CN1CCC[C@@H]1/C=C/C(=O)Nc1ccc2ncnc(Nc3ccc(OCc4ccccn4)c(Cl)c3)c2c1OC1CCOC1 (stereo partly drawn) [Example 40, (E)-N-(4-((3-chloro-4-(pyridin-2-ylmethoxy)phenyl)amino)-5-((tetrahydrofuran-3-yl)oxy)quinazolin-6-yl)-3-((R)-1-methylpyrrolidin-2-yl)acrylamide] | < 10 nM | 1 to 5 nM | < 10 nM |
